Data as given in patent US20070015813A1, “Treatment of protein folding disorders” (QUEEN'S UNIVERSITY AT KINGSTON, priority 2005, published 2007).

What was measured:
Type in all cases: biochemical
Aβ1-40 [1] = biological target: T1, Aβ1-40 (Homo sapiens, UniProt P05067); experiment: Kinetic Thioflavin T (ThT) aggregation assay of Aβ1-40; details: 20 μM Aβ1-40, 4 μM ThT, pH 7.4, 37° C., kinetic ThT assay
T1 construct: Aβ^1-40 (AnaSpec, San Jose, Calif., lots 14212, 34862 and 34889); purchased AnaSpec, San Jose, Calif
Method: Aβ^1-40 (1.0 mg) was pre-treated in a 1.5 mL microfuge tube with 1,1,1,3,3,3-hexafluoroisopropanol (HFIP, 1 mL) and sonicated for 20 min. to disassemble any pre-formed Aβ aggregates. The HFIP was removed with a stream of argon and the Aβ dissolved in Tris base (5.8 mL, 20 mM, pH 10.5). The pH was adjusted to 7.4 with concentrated HCl and the solution filtered using a syringe filter (0.2 μm). This solution was used for circular dichroism studies or diluted with an equal volume of 8 μM Thioflavin T (ThT) in Tris-HCl (20 mM, pH 7.4, 300 mM NaCl) for the ThT aggregation assay.
(§1) Aliquots (200 μL) of Aβ^1-40, Aβ^1-42, tau441 or α-synuclein with ThT or ThS were added to wells of a black polystyrene 96-well plate, followed by 2 μL of a compound in DMSO (various concentrations), or DMSO alone (controls). For α-synuclein, sodium dodecyl sulfate solution (2.0 μL, 30 mM) was also added to each well to induce aggregation. Incubations were performed in triplicate and were taken to contain 20 μM Aβ^1-40 or Aβ^1-42, 6 μM tau441 or 4 μM α-synuclein. Plates were covered with clear polystyrene lids and incubated at 37° C. in a GENios microplate reader obtained from Tecan Group Limited, Mannedorf, Zurich. For Aβ^1-40, tau441 and α-synuclein, fluorescence readings (λex=450 nm, λem=480 nm) were taken every 15 min., after first shaking at high intensity for 15 sec. and allowing to settle for 10 sec. before each reading. For Aβ^1-42, readings were taken every 5 min.
(§2) The absorbance of each compound was measured under the conditions used during testing, though on ten times the scale (2 mL), to ensure no significant quenching interfered with the assay. This step was also used to identify whether compounds were completely soluble under testing conditions.
FIG. 1 depicts the inhibition of Aβ^1-40 aggregation, as measured by Thioflavin T (ThT) fluorescence, by directly-linked 3,3′-bis-indolyl compounds 0c-i (A), other bis-indoles (B), aza-indole-containing compounds (C), indole-phenols (D), indole-5-carboxylic acid-containing bi-aromatics (E), and naphthol-containing bi-aromatics (F). Aggregation conditions: 20 μM Aβ^1-40 incubated in covered black 96-well polystyrene microplates with 4 μM ThT, pH 7.4, Tris-HCl (20 mM), 150 mM NaCl, 1% DMSO. Compound concentrations are 200 μM (A,B, except where otherwise noted), 100 μM (E), 20 μM (F), or as indicated (C,D). Plates heated at 37° C. in Tecan Genios microplate reader. All incubations performed in triplicate. Prior to experiment, Aβ^1-40 pretreated with 1,1,1,3,3,3-hexafluoroisopropanol (HFIP). Fluorescence readings: fluorescence measured every 15 min. (λex=450 nm, λem=480 nm) after shaking for 15 sec. and pausing 10 sec. before taking measurement. Values are the mean of three replicates. Error bars, omitted for clarity in (B), represent standard deviation of the mean.

Aβ1-42 = biological target: T2, Aβ1-42 (Homo sapiens, UniProt P05067); experiment: Kinetic Thioflavin T (ThT) aggregation assay of Aβ1-42; details: 20 μM Aβ1-42, kinetic ThT assay
T2 construct: Aβ^1-42 (AnaSpec, lot 45685); purchased AnaSpec
Method: Aβ^1-42 (1.0 mg) was either pretreated with HFIP in the same manner as Aβ^1-40 or this step was omitted. After removing HFIP, when appropriate, Aβ^1-42 was dissolved in 1% NH3 (aq.) (200 μL) and sonicated for 1 min. The solution was diluted with Tris-HCl (5.7 mL, 20 mM, pH 7.4), the pH adjusted to 7.4 with concentrated HCl (aq.) and the solution filtered using a syringe filter (0.2 μm). Prior to use in the ThT aggregation assay, the solution was diluted with an equal volume of 8 μM Thioflavin T (ThT) in Tris-HCl (20 mM, pH 7.4, 300 mM NaCl).
as §1, §2
FIG. 7 depicts inhibition of Aβ^1-42 aggregation by various synthesized bi-aromatic compounds and positive controls morin (Ono K, Yoshiike Y, Takashima A, Hasegawa K, Naiki H, Yamada M. 2003. J Neurochem 87:172-81) and RS-0406 (Walsh D M, Townsend M, Podlisny M B, Shankar G M, Fadeeva J V, Agnaf O E, Hartley D M, Selkoe D J. 2005. J Neurosci 25:2455-62) in the kinetic ThT assay. Same conditions as for Aβ^1-40, FIG. 1. Compound concentrations were 100 μM in (A), 20 μM in (B), except for RS-0406, which was tested at 100 μM, and 20 μM in (C).

Aβ1-40 [2] = biological target: T1, Aβ1-40; experiment: Circular dichroism studies of Aβ1-40; details: 40 μM Aβ1-40, 200 μM compound, pH 7.4, 37° C.
Method: Aliquots (220 μL) of pretreated Aβ^1-40 (40 μM in 20 mM Tris-HCl, pH 7.4) were added directly to 1 mm quartz circular dichroism (CD) cells, followed by 2.2 μL compound (of varying concentration) in methanol or methanol alone (controls). Solutions were incubated at 37° C. for up to 6 days. CD scans were performed on a J-810 spectropolarimeter (obtained from Jasco Corporation, Tokyo, Japan) between 190 and 250 nm, with a resolution of 0.1 nm and bandwidth of 1 nm. Ten scans were obtained for each reading. Spectra had background CD of the buffer subtracted and were left unsmoothed. Readings were performed at 37° C.
FIG. 6 depicts circular dichroism (CD) of Aβ^1-40 alone (A) and in the presence of 0j (B) and morin (C). Conditions: 40 μM Aβ^1-40, 200 μM compound (B,C), pH 7.4, Tris-HCl (20 mM), 1% MeOH. Prior to experiment, Aβ^1-40 pretreated with 1,1,1,3,3,3-hexafluoroisopropanol (HFIP).

T1 sequence (P05067 672-711 limits assumed): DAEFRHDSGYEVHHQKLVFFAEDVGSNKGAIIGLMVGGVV
T2 sequence (P05067 672-713 limits assumed): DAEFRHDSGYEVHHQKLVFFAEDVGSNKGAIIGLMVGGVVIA

inhibition of Aβ1-40 aggregation, as measured by Thioflavin T (ThT) fluorescence (Aβ1-40 [1]): inhibition
inhibition of Aβ1-42 aggregation, as measured by ThT fluorescence (Aβ1-42): inhibiting aggregation
random coil (RC)→β-sheet transition of Aβ1-40 by circular dichroism (Aβ1-40 [2]): inhibited to a greater extent
Compound: O=C(O)c1ccc2[nH]cc(-c3c[nH]c4ccc(O)cc34)c2c1 [0j, 3-(5-Hydroxy-indol-3-yl)-indole-5-carboxylic Acid]
